Like-named read-outs stand apart in the source and are kept apart here. Marks after values point to notes of the source that are not given here.
Legend:
TNF-α = test system: TNF-α
Experimental: (§1) Activated microglia and astroglia are known to produce excessive amount of NO having the potential of damaging neurons in neurodegenerative disorders. We investigated the effect of NaPB on the expression of iNOS in microglia. LPS is a prototype inducer of various proinflammatory molecules in different cell types including mouse microglia. Therefore, primary mouse microglia preincubated with different doses of NaPB for 6 h were stimulated with LPS under serum-free condition. […] We used trichostatin A (TSA) and sodium butyrate (NaBu) for this purpose.
(§2) Isolation of Mouse Microglia: Microglia were isolated from mixed glial cultures. Briefly, on day 7-9, the mixed glial cultures were washed three times with Dulbecco's modified Eagle's medium/F-12 and subjected to shaking at 240 rpm for 2 h at 37° C. on a rotary shaker. The floating cells were washed and seeded on to plastic tissue culture flasks and incubated at 37° C. for 1 h. The attached cells were seeded onto new plates for further studies. […] Mouse BV-2 microglial cells (kind gift from Virginia Bocchini of Universityof Perugia) were also maintained and induced as indicated above.

IL-1β = test system: IL-1β
Experimental: as §1, §2

cholesterol = experiment: Serum cholesterol in male C57/BL6 mice; assay type: in vivo, mouse; conditions: 200 mg/kg body wt/d, oral, 7 d
Experimental: Mice (6-8 wk old) were treated with NaPB (200 mg/kg body wt/d) and pravastatin (1 mg/kg body wt/d) separately via gavage for 7 d followed by quantification of cholesterol in serum using a simple fluorometric method.
Intermediates of the mevalonate pathway play a role in the expression of iNOS and proinflammatory cytokines in glial cells. End product of the mevalonate pathway is cholesterol and therefore, we investigated if NaPB had any effect on the level of cholesterol in vivo in mice.
Assay of cholesterol in serum: Total cholesterol was quantified irr serum by using an Amplex Red Cholesterol Assay kit from Invitrogen. Briefly, cholesterol was oxidized by cholesterol oxidase to yield H2O2, which then reacted with 10-acetyl-3,7 dihydroxyphenoxazine (Amplex Red). In the presence of horseradish peroxidase (HRP), this Amplex Red:H2O2 complex produced highly fluorescent resorufin, which was detected by fluorometry.

MPTP-intoxicated mice = experiment: Locomotor and open-field activities in acute MPTP-intoxicated mice; assay type: in vivo, mouse; conditions: NaPB 200 mg/kg body wt/day from 3 h after last MPTP; 7 d
Experimental: Mice receiving FTI, GGTI or the combination of the two via daily intraperitoneal injection from 3h after the last injection of MPTP were tested for motor functions (B, horizontal activity; C, total distance; D, number of movement; E, stereotypy) 7 d after the last injection of MPTP followed by measuring DA in striatum (A).
The ultimate therapeutic goal of neuroprotection is to decrease functional impairment. Therefore, to examine whether NaPB protects not only against structural and neurotransmitter damage but also against functional deficits caused by MPTP, we monitored locomotor and open-field activities. MPTP injection caused marked decrease in rotorod performance (FIG. 15A), movement time (FIG. 15B), total distance (FIG. 15C), stereotypy (FIG. 15E), rearing (FIG. 15F), and horizontal activity (FIG. 15G). On the other hand, MPTP increased the rest time (FIG. 15D).
Therefore, we investigated if inhibition of either p21^ras or p21^rac alone was sufficient for the protection of the nigrostriatum. MPTP-intoxicated mice received FTI and GGTI, either separately at 10 mg/kg body wt/d or together at 5 mg/kg body wt/d, via i.p. injection from 3 h after the last injection of MPTP. […]
Behavioral analyses: Two types of behavioral experiments were conducted. […] Locomotor activity measures were assessed after baseline value comparison.

[1] = test system: chronic MPTP mouse model of PD; conditions: oral 100 mg/kg body wt/d from the third injection of MPTP/probenecid
Experimental: A) Six to eight week old male C57BL/6 mice received 10 injections of MPTP (s.c.; 25 mg/kg body weight) together with 10 injections of probenecid (i.p.; 250 mg/kg body weight) for 5 weeks. Control group of mice received only saline. One group of mice were treated with NaPB (100 mg/kg body weight/d) via gavage from the 3rd injection of MPTP/probenecid and continued for 1 week thereafter. Mice were tested for different motor tasks [horizontal activity (C), number of movements (D), rearing (E), and stereotypy (F)] one week after the last injection of MPTP followed by measuring the level of DA in striatum (B). Data are means+SEM of eight mice per group. ^ap<0.001 vs saline; ^bp<0.001 vs MPTP; p<0.05 vs saline; ^dp<0.05 vs MPTP.
We examined if NaPB was capable of protecting neurons in a chronic model (FIG. 10A). […] We initiated oral NaPB treatment (100 mg/kg body wt/d) from the third injection of MPTP/probenecid (FIG. 10A). […]
Behavioral analyses: Two types of behavioral experiments were conducted. This included open field experiment for locomotor activity and rotorod experiment for feet movement. .Locomotor activity was measured after 7 d of the last dose of MPTP injection in Digiscan Monitor (Omnitech Electronics, Inc., Columbus, Ohio). […] [sequence] software was used to analyze and store horizontal and vertical activity data, which were monitored automatically by infra-red beams.

NF-κB p65 = conditions: 200 mg/kg body wt/day gavage from 3 h after last MPTP; 24 h after last MPTP
From the text: Twenty-four h after the last injection of MPTP, ventral midbrain sections were immunostained for p65 (low magnification). Midbrain sections of MPTP-intoxicated mice were also double-labeled for p65 and glial cell markers (GFAP for astrocytes and CD11b for microglia). Results represent three independent experiments. D) NF-κB p65 positive cells counted in four nigral sections (two images per slide) from each of four mice in an Olympus IX81 fluorescence microscope using the MicroSuite™ imaging software are mentioned as cells/mm2. ^ap<0.0001 vs saline-control; ^bp<0.0001 vs MPTP.
Next, mice were treated with NaPB (200 mg/kg body wt/day) via gavage from 3 h after the last injection of MPTP and the activation of NF-κB was examined 24 h after the last injection of MPTP.
For acute MPTP intoxication, mice received four intraperitoneal (i.p.) injections of MPTP-HCl (18 mg/kg of free base; Sigma Chemical Co., St. Louis, Mo.) in saline at 2 hr intervals. Control animals received only saline.
For immunofluorescence staining on fresh frozen sections, rat anti-mouse CD11b (1:100), goat anti-mouse GFAP (1:100), rabbit anti NF-κB p65 (1:100), goat anti-NF-κB p65 (1:100), rabbit anti NF-κB p50 (1:100), and rabbit anti-mouse iNOS (1:250) were used. The samples were mounted and observed under a Bio-Rad MRC1024ES confocal laser scanning microscope.

p21^ras = conditions: 500 μM preincubation
Experimental: A) Mouse BV-2 microglial cells preincubated with different concentrations of FTI and GGTI were stimulated with LPS for 60 min followed by monitoring the activation of NF-κB by EMSA. B) Cells preincubated with different concentrations of FTI and GGTI were stimulated with LPS for 10 min followed by monitoring the production of superoxide. […] C) Cells were transfected with Δp21^ras, Δp21^rac or an empty vector using Lipofectamine Plus. Twenty-four hour after transfection, cells were stimulated with LPS followed by monitoring superoxide production at 15 and 30 ‘rain of stimulation. ^ap<0.001 vs control; ^bp<0.001 vs LPS-15 min; ^cp<0.001 vs LPS-30 min. D) Cells preincubated with 500 μM NaPB were stimulated with LPS. At different time points, activation of p21^ras and p21^rac was monitored. Results represent three independent experiments.
Next, we examined the effect of NaPB on the activation of p21^ras and p21^rac.
Activation of p21^ras and p21^rac: Activation of p21^ras was monitored. Briefly, after 6 h of MPTP insult, ventral midbrain was dissected out and frozen immediately on dry ice. […] Then the amount of activated p21^ras was determined in GST beads by a Western blot using a p21^ras specific antibody.

NF-κB = experiment: Transcriptional activity of NF-κB (PBIIX-Luc reporter) in BV-2 microglial cells; assay type: cell-based, mouse
Experimental: Transcriptional activity of NF-κB: Transcriptional activity of NF-κB was assayed. […] After 24 h of transfection, […], and firefly and Renilla luciferase activities were recorded in a TD-20/20 Luminometer (Turner Designs, Sunnyvale, Calif.) by analyzing total cell extract according to standard instructions provided in the Dual Luciferase Kit (Promega), Relative luciferase activity of cell extracts was typically represented as (firefly luciferase value/Renilta luciferase value)×10^−3.

[2] = LPS + NaPB (0.1 mM), 6 hrs preincubation, LPS 24 hrs, supernatant ELISA
[3] = LPS + NaPB (0.2 mM), 6 hrs preincubation, LPS 24 hrs, supernatant ELISA
[4] = LPS + NaPB (0.5 mM), 6 hrs preincubation, LPS 24 hrs, supernatant ELISA

Substance: sodium phenylbutyrate [NaPB]
- TNF-α production (TNF-α; [2]): 16.8 ± 1.5 ng/mg protein/24 hr
- TNF-α production (TNF-α; [3]): 12.7 ± 0.8 ng/mg protein/24 hr
- TNF-α production (TNF-α; [4]): 8.6 ± 1.1^a ng/mg protein/24 hr
- TNF-α production (TNF-α; NaPB (0.5 mM) only, no LPS): 0 ng/mg protein/24 hr
- production of TNF-α protein in activated microglia (TNF-α; Table 1): dose-dependently inhibited
- IL-1β production (IL-1β; [2]): 9.9 ± 1.4 ng/mg protein/24 hr
- IL-1β production (IL-1β; [3]): 7.5 ± 1.1 ng/mg protein/24 hr
- IL-1β production (IL-1β; [4]): 5.3 ± 0.6^a ng/mg protein/24 hr
- IL-1β production (IL-1β; NaPB (0.5 mM) only, no LPS): 0 ng/mg protein/24 hr
- production of IL-1β protein in activated microglia (IL-1β; Table 1): dose-dependently inhibited
- reduction of the level of cholesterol in serum (cholesterol): about 30%
- MPTP-induced hypolocomotion (rotorod, movement time, total distance, rest time, stereotypy, rearing, horizontal activity) (MPTP-intoxicated mice): significantly improved
- locomotor activities (horizontal activity, number of movements, rearing, stereotypy) [1]: improved
- level of p65 in the SNpc (NF-κB p65): markedly inhibited
- LPS-induced activation of p21^ras (p21^ras): markedly suppressed
- RasV12-induced activation of NF-κB (NF-κB; RasV12-transfected cells, NaPB 6 h): attenuated
- LPS-induced transcriptional activity of NF-κB (NF-κB; different concentrations, 6 h preincubation): suppressed

Reference: US20130303564A1, “METHOD FOR TREATING A NEURODEGENERATIVE DISORDER” (RUSH UNIVERSITY MEDICAL CENTER, priority 2012, published 2013)
